Data on 32 compounds can be found in ChEMBL document CHEMBL3352275, “2-Aminothiazole derivatives as antimycobacterial agents: Synthesis, characterization, in vitro and in silico studies” (Eur J Med Chem, 2014).

≈ marks a conversion by molar mass, not a printed value. A value given as a limit tells only on which side of the number the result lay.

Target in the first assay: not listed separately
Put plainly: Binding affinity to Mycobacterium tuberculosis beta-Ketoacyl-ACP Synthase.
Details: not given
`Cc1cccc(Nc2nc(-c3ccncc3)cs2)n1` gave a Ki of 30200 nM. Still for that read-out and setting: then `Fc1ccc(Nc2nc(-c3ccc(Br)cc3)cs2)cc1`, with 1280 nM; and `Brc1ccc(Nc2nc(-c3ccncc3)cs2)cc1`, with 440 nM.

The next assay concerns Mycobacterium tuberculosis. Description: Antimycobacterial activity against Mycobacterium tuberculosis H37Rv after 5 days by resazurin-based microdilution method. The format is functional. The conditions noted are these: 120 h. (The colour change of resazurin is a common sign of viable cells or microbes.)
With `O=[N+]([O-])c1cc(Cl)ccc1Nc1nc(-c2ccncc2)cs1`, the MIC was > 200 µM. Same read-out and setting: the figure for `Cc1cccnc1Nc1nc(-c2ccc(Br)cc2)c(C)s1` is 100 µM (≈ 36 µg/mL); for `Fc1ccc(Nc2nc(-c3ccncc3)cs2)cc1` it is 25 µM (≈ 6.78 µg/mL); for `O=[N+]([O-])c1cc(Cl)ccc1Nc1nc(-c2ccccn2)cs1` it is > 200 µM. Still for that read-out and setting: the figure for `Fc1ccc(Nc2nc(-c3ccc(Cl)cc3)cs2)cc1` is 12.5 µM (≈ 3.81 µg/mL); for `Oc1ccc(Nc2nc(-c3cccnc3)cs2)cc1` it is > 200 µM. Still for that read-out and setting: then `Brc1ccc(-c2csc(Nc3ccccn3)n2)cc1`, with > 200 µM. With `COc1ccc(-c2csc(Nc3ccc(O)cc3)n2)cc1`, the MIC was > 200 µM. Still for that read-out and setting: then `Cc1cccnc1Nc1nc(-c2ccc(Cl)c(Cl)c2)cs1`, with > 200 µM; and `COc1ccc(-c2csc(Nc3cccc(C)n3)n2)cc1`, with > 200 µM; and `Cc1cccnc1Nc1nc(-c2cccnc2)cs1`, with > 200 µM. The same measure, in the same setting: the figure for `Oc1ccc(Nc2nc(-c3ccncc3)cs2)cc1` is > 200 µM. Turning to `O=[N+]([O-])c1cc(Cl)ccc1Nc1nc(-c2cccnc2)cs1`, the minimal inhibitory concentration (MIC) is > 200 µM.

For `Fc1ccc(Nc2nc(-c3cccnc3)cs2)cc1`, the MIC is > 200 µM.

As to `Cc1cccc(Nc2nc(-c3cccc4ccccc34)cs2)n1`, the MIC is > 200 µM.

For `Cc1cccnc1Nc1nc(-c2ccncc2)cs1`, the MIC was > 200 µM. Regarding `c1ccc(Nc2nc(-c3cccnc3)cs2)nc1`, the MIC was > 200 µM. Same read-out and setting: then `Cc1sc(Nc2ccccn2)nc1-c1ccc(Br)cc1`, with > 200 µM; and `Fc1ccc(Nc2nc(-c3ccc(Br)cc3)c(Br)s2)cc1`, with 25 µM (≈ 10.7 µg/mL). `Cc1cccc(Nc2nc(-c3ccc(Cl)c(Cl)c3)cs2)n1`: the MIC is > 200 µM.

In turn, `Fc1ccc(Nc2nc(-c3ccc4ccccc4c3)cs2)cc1` yielded an MIC of 100 µM (≈ 32 µg/mL). Same read-out and setting: the figure for `Cc1cccc(Nc2nc(-c3ccncc3)cs2)n1` is 100 µM (≈ 26.8 µg/mL); for `Cc1sc(Nc2ccc(F)cc2)nc1-c1ccc(Br)cc1` it is 100 µM (≈ 36.3 µg/mL); for `Brc1ccc(-c2nc(Nc3ccccn3)sc2Br)cc1` it is > 200 µM. The same measure, in the same setting: the figure for `Cc1cccc(Nc2nc(-c3ccc(Br)cc3)c(C)s2)n1` is > 200 µM; for `COc1ccc(-c2csc(Nc3ccc(F)cc3)n2)cc1` it is 12.5 µM (≈ 3.75 µg/mL). With `Cc1cccnc1Nc1nc(-c2ccc(Br)cc2)c(Br)s1`, the MIC was > 200 µM. On the same count and under the same terms, the figure for `Fc1ccc(Nc2nc(-c3ccc(Br)cc3)cs2)cc1` is 25 µM (≈ 8.73 µg/mL). In turn, `Oc1ccc(Nc2nc(-c3ccc(Cl)cc3)cs2)cc1` had an MIC of 200 µM (≈ 60.6 µg/mL).

For the compound `O=[N+]([O-])c1cc(Cl)ccc1Nc1nc(-c2ccc3ccccc3c2)cs1`, the MIC is > 200 µM. Still for that read-out and setting: the figure for `COc1ccc(-c2csc(Nc3ccc(Cl)cc3[N+](=O)[O-])n2)cc1` is 12.5 µM (≈ 4.52 µg/mL).

As a reminder, the Ki is a measure of affinity in units of concentration, obtained from inhibition or displacement. Lower therefore signals higher affinity. The term MIC denotes the lowest concentration that inhibits growth of the organism. Low values mean inhibition by little substance, high ones a need for much substance.
